# Results: patent US9936701B2, “Herbicidal compounds” (Syngenta Participations AG, priority 2013, dated 2018)
# Legend:
# [1] = test system: a variety of test species; assay: Pre-emergence herbicidal activity (glasshouse, sprayed one day after sowing, evaluated after 13 days); type: in vivo; parameters: key: 5=total damage to plant; 0=no damage to plant; details: application pre-emergence, rate 1000 g/Ha, scale 0-5
# Procedure, shortened: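 Seeds sown in standard soil in pots, held one day in glasshouse (24/16 °C day/night, 14 h light, 65% humidity), then sprayed with aqueous solution of compound formulated in acetone/water 50:50 with 0.5% Tween 20. Grown on under same conditions, watered twice daily; damage scored after 13 days (0 = none, 5 = total).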
# [2] = test system: a variety of test species; assay: Post-emergence herbicidal activity (glasshouse, sprayed after 8 days cultivation, evaluated after 13 days); type: in vivo; parameters: key: 5=total damage to plant; 0=no damage to plant; details: rate 1000 g/Ha, scale 0-5
# Procedure, shortened: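 Pot-grown seedlings sprayed 8 days after sowing with active ingredient in acetone/water (50:50) plus 0.5% Tween 20. Glasshouse at 24/16 °C day/night, 14 h light, 65% humidity, watered twice daily. Damage scored after 13 days on a 0–5 scale (5 = total damage, 0 = none).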
SMILES,melting point [°C],"Pre-emergence herbicidal damage score, ABUTH [1]","Pre-emergence herbicidal damage score, ALOMY [1]","Pre-emergence herbicidal damage score, AMARE [1]","Pre-emergence herbicidal damage score, ECHCG [1]","Pre-emergence herbicidal damage score, SETFA [1]","Pre-emergence herbicidal damage score, ZEAMX [1]","ABUTH (Abutilon theophrasti) damage score, application post-emergence [2]","ALOMY (Alopecurus myosuroides) damage score, application post-emergence [2]","AMARE (Amaranthus retroflexus) damage score, application post-emergence [2]","ECHCG (Echinochloa crus-galli) damage score, application post-emergence [2]","SETFA (Setaria faberi) damage score, application post-emergence [2]","ZEAMX (Zea mays) damage score, application post-emergence [2]"
CCOC1=C(C)C(O)N(c2cc(C(C)(C)C#N)on2)C1=O (stereo not shown) [D6],90 to 92,5,4,5,5,4,3,5,4,5,5,5,2
COC1=C(C)C(OC(C)=O)N(c2cc(C(C)(C)C)on2)C1=O (stereo not shown) [D7],118 to 124,5,3,5,4,5,2,5,4,5,5,5,3
CCOC1=C(C)CN(c2cc(C(C)(C)C#N)on2)C1=O [D8],127 to 129,3,2,4,3,4,2,4,3,5,4,3,0
COC1=C(C)CN(c2noc(C(C)C)c2C#N)C1=O [D10],131 to 133,4,3,5,5,5,2,4,5,5,5,5,2
"COC1=C(C)CN(c2noc(C(C)(C)C)c2C#N)C1=O [D11, 5-tert-butyl-3-(4-methoxy-3-methyl-5-oxo-2H-pyrrol-1-yl)isoxazole-4-carbonitrile]",138 to 140,4,4,5,5,5,3,5,5,5,5,5,4

# Continued, in another order:
melting point [°C],SMILES,"Pre-emergence herbicidal damage score, ABUTH [1]","Pre-emergence herbicidal damage score, ALOMY [1]","Pre-emergence herbicidal damage score, AMARE [1]","Pre-emergence herbicidal damage score, ECHCG [1]","Pre-emergence herbicidal damage score, SETFA [1]","Pre-emergence herbicidal damage score, ZEAMX [1]","ABUTH (Abutilon theophrasti) damage score, application post-emergence [2]","ALOMY (Alopecurus myosuroides) damage score, application post-emergence [2]","AMARE (Amaranthus retroflexus) damage score, application post-emergence [2]","ECHCG (Echinochloa crus-galli) damage score, application post-emergence [2]","SETFA (Setaria faberi) damage score, application post-emergence [2]","ZEAMX (Zea mays) damage score, application post-emergence [2]"
103 to 105,COC1=C(C)CN(c2cc(C(C)(C)C#N)on2)C1=O [D12],5,4,5,5,4,2,4,4,5,5,5,2
72 to 74,CCC(C)(C)c1onc(N2CC(C)=C(OC)C2=O)c1C#N [D13],2,2,5,4,2,2,4,5,5,5,5,2
